Experimental data reported in patent US20090202572A1, “COMPOSITIONS AND METHODS FOR MODULATING BONE MASS” (priority 2004, published 2009).
“Also recorded” adds a separate entry of the source. Like-named read-outs stand apart in the source and are kept apart here.

How the values were obtained:
WT osteoblasts = test: cAMP production in osteoblasts; assay type: cell-based, mouse
Text: β2AR is the only post-synaptic β-AR whose expression can be detected in osteoblasts. […] Thus, we used Adrb2−/− mice to study how sympathetic signaling affects bone remodeling in adult animals.

WT mature osteoclasts = test: Osteoclast function: resorption pits on dentine slices; assay type: cell-based, mouse
Text: WT or Adrb2 BBMs were differentiated for 2 days with MCS-F and RANK-L, trypsinized and platted on dentine slices for 2 days. Resorption pits were stained with hematoxylin and resorption pit area was quantified (data not shown). To test whether sympathetic signaling could affect osteoclast function, we treated TRAP-positive multinucleated osteoclasts with isoproterenol.

mature osteoclasts = test: cAMP production in mature osteoclasts (EIA); assay type: cell-based, mouse; conditions: ISO 10 μM, calcitonin 100 pg/ml
Procedure: (§1) (a) In vitro osteoclastogenesis is not affected by Adrb2 deficiency. BBMs were differentiated with the indicated amounts of RANK-L and MCS-F and the number of TRAP+ osteoclasts was counted after 5 days. (b) In vitro osteoclast differentiation is not affected by Isoproterenol (ISO) treatment. BBMs were differentiated in presence of MCS-F and RANK-L with or without 10 uM ISO and the number of TRAP+ osteoclasts was counted after 5 days. […] BBMs were differentiated in presence of MCS-F and RANK-L and were treated by ISO (10 μM), dobutamine (Dobu, 10 μM) or calcitonin (100 pg/ml). Intracellular cAMP production was measured by EIA. (d) ISO stimulated osteoclast differentiation via stimulation of b2AR in osteoblasts. Osteoblasts and BMMs were co-cultured with 1,25(OH)2-vitamin D (10^-8 M) with or without ISO (10 uM) and the number of TRAP+ osteoclasts was counted after 4 days. (e) ISO induced Rank-l expression in osteoblasts, via b2AR. (f) ISO induced IL6 expression in osteoblasts, via b2AR. WT and Adrb2 primary osteoblasts were treated for the indicated time with ISO (10 μM) and gene expression was quantified by real-time RT-PCR. (g) Schematic diagram of the structure of Rank-1 and IL6 promoters. Boxes represent CREB-like consensus binding sites.
To test whether sympathetic signaling could affect osteoclast function, we treated TRAP-positive multinucleated osteoclasts with isoproterenol.

primary osteoblasts = test: Gene expression in primary osteoblasts by real-time RT-PCR; assay type: cell-based, mouse
Procedure: as §1, with “BBMs” for “(a) In vitro osteoclastogenesis is not affected by Adrb2 deficiency. BBMs”, “(b) In vitro osteoclast differentiation is not affected by Isoproterenol (ISO) treatment.” left out, “(d) ISO stimulated osteoclast differentiation via stimulation of b2AR in osteoblasts.” left out, “(e) ISO induced Rank-l expression in osteoblasts, via b2AR. (f) ISO induced IL6 expression in osteoblasts, via b2AR.” left out
To test this hypothesis we analyzed the expression in osteoblasts of genes encoding known regulators of osteoclast differentiation following treatment with isoproterenol.

WT mice [1] = test: Gene expression in bones of WT mice treated for 3 weeks; assay type: in vivo, mouse; conditions: 3 weeks treatment
Text: To determine the biological relevance of these findings we performed two experiments. First, we treated WT mice with isoproterenol for 3 weeks and analyzed bone resorption parameters and bone expression of Rank-l and IL6 at the end of this treatment period. […] Second, to determine the role that this physiological regulation may have in pathological conditions such as bone loss developing after menopause, we ovariectomized WT and Adrb2−l− mice at one month of age and analyzed them 3 months later. […] The increase in bone formation that persisted together with the absence of any increase in bone resorption explained why Adrb2−/− mice maintained a higher bone mass than WT mice.

[2] = system: bone marrow macrophages (BMMs); test: In vitro osteoclast differentiation of BMMs with RANK-L and M-CSF (TRAP+ count); assay type: cell-based, mouse; conditions: 10 uM ISO, counted after 5 days
Procedure: as §1, with “BBMs” for “(a) In vitro osteoclastogenesis is not affected by Adrb2 deficiency. BBMs”, “(b) In vitro osteoclast differentiation is not affected by Isoproterenol (ISO) treatment.” left out, “(d) ISO stimulated osteoclast differentiation via stimulation of b2AR in osteoblasts.” left out, “(e) ISO induced Rank-l expression in osteoblasts, via b2AR. (f) ISO induced IL6 expression in osteoblasts, via b2AR.” left out

osteoblasts and BMMs = test: Co-culture of osteoblasts and BMMs with 1,25-(OH)2 vitamin D3 (TRAP+ osteoclast count); assay type: cell-based, mouse; conditions: for number of TRAP-positive multinucleated osteoclasts in co-culture: WT osteoblasts and WT BMMs, ISO 10 uM, 4 days
Procedure: as §1, with “BBMs” for “(a) In vitro osteoclastogenesis is not affected by Adrb2 deficiency. BBMs”, “(b) In vitro osteoclast differentiation is not affected by Isoproterenol (ISO) treatment.” left out, “(d) ISO stimulated osteoclast differentiation via stimulation of b2AR in osteoblasts.” left out, “(e) ISO induced Rank-l expression in osteoblasts, via b2AR. (f) ISO induced IL6 expression in osteoblasts, via b2AR.” left out
To that end we performed co-culture of BMMs and osteoblasts prepared from mouse calvariae. In this assay treatment of osteoblasts with 1,25-(OH)2 vitamin D3 leads to the differentiation of BMMs into TRAP-positive multinucleated osteoclasts.

WT mice [3] = conditions: stated as known property; cited from earlier work
WT mice [4] = test: Bone remodeling parameters in treated WT mice; assay type: in vivo, mouse
Text: (a) von Kossa staining of vertebral sections. Six month old Adrb2−/− and Adrb2+/− mice display an increase in bone volume over tissue volume (BV/TV) compared to wt littermates. (b) Bone formation parameters: bone formation rate (BFR), osteoblast surface over bone surface (ObS/BS) and osteoblast number over bone perimeter (ObNb/BPm) are increased in Adrb2−/− and Adrb2+/− mice. (c) Bone resorption parameters: osteoclast surface over bone surface (OcS/BS), osteoclast number over bone perimeter (OcNb/BPm) and urinary elimination of deoxypiridinoline (dpd) are decreased in Adrb2−/− and Adrb2+/− mice.
First, we analyzed mice lacking only one copy of Adrb2 and compared them to WT mice treated with propranolol, a β-adrenergic receptor antagonist whose administration enhances bone formation in mice. Expression of Adrb2 was first assayed in WT, Adrb2−/− and Adrb2+/− osteoblasts. […] This was due to both an increase in bone formation and a decrease in bone resorption (FIGS. 1b and 1c). To our knowledge, this high bone mass is the only phenotypic consequence reported so far in the case of haploinsufficiency at the Adrb2 locus.

CC(CCc1ccc(O)cc1)NCCc1ccc(O)c(O)c1 (stereo not drawn) [dobutamol]
cAMP production in osteoblasts (WT osteoblasts): did not and not

CC(C)NCC(O)c1ccc(O)c(O)c1 (stereo not drawn) [isoproterenol]
osteoclast function (pit formation / resorption pit area on dentine slices) (WT mature osteoclasts): did not affect | osteoclast function (pit formation / resorption pit area on dentine slices) (WT mature osteoclasts; listed as ISO): normal | intracellular cAMP production in osteoclasts (mature osteoclasts): did not induce any significant | intracellular cAMP production in osteoclasts (mature osteoclasts; listed as ISO): does not induce | induction of Rank-l expression (primary osteoblasts; Adrb2−/− osteoblasts): not detected | IL6 expression in osteoblasts (primary osteoblasts; ISO 10 μM): increased | IL6 expression in osteoblasts (primary osteoblasts; ISO 10 μM, listed as ISO): induced | Rank-l expression in osteoblasts (in words) (primary osteoblasts; WT osteoblasts, ISO 10 μM): induced | increase of Rank-l expression (primary osteoblasts; WT osteoblasts, ISO 10 μM): ~20 fold | expression of IL2 (primary osteoblasts; osteoblasts, data not shown): did not affect | expression of ILI α (primary osteoblasts; osteoblasts, data not shown): did not affect | expression of M-CSF (primary osteoblasts; osteoblasts, data not shown): did not affect | expression of osteoprotegerin (Opg) (primary osteoblasts; osteoblasts, data not shown): did not affect | IL6 expression in bones (WT mice [1]): increased | OPG expression in bones (WT mice [1]): unaffected | Rank-l expression in bones (WT mice [1]): increased | cAMP production in osteoblasts (WT osteoblasts): enhances | cAMP production in osteoblasts (WT osteoblasts; listed as Isoproterenol): stimulate | number of TRAP-positive multinucleated osteoclasts [2]: did not affect | number of TRAP-positive multinucleated osteoclasts ([2]; listed as Isoproterenol): not affected | osteoclast differentiation in co-culture (osteoblasts and BMMs; Adrb2−/− osteoblasts with WT BMMs): could not enhance | number of TRAP-positive multinucleated osteoclasts in co-culture (osteoblasts and BMMs): significantly increased | number of TRAP-positive multinucleated osteoclasts in co-culture (osteoblasts and BMMs; listed as ISO): stimulated | osteoclast differentiation in co-culture (osteoblasts and BMMs; WT osteoblasts with Adrb2−/− BMMs): increased

CC(C)NCC(O)COc1cccc2ccccc12 (stereo not drawn) [propranolol]
bone formation (WT mice [3]): enhances | bone resorption parameters (OcS/BS, OcNb/BPm, urinary dpd) (WT mice [4]): do not display a significant decrease; also recorded: did not affect

CC(C)(C)NCC(O)c1ccc(O)c(CO)c1 (stereo not drawn) [salbutamol]
cAMP production in osteoblasts (WT osteoblasts): stimulated

calcitonin
intracellular cAMP production in osteoclasts (mature osteoclasts): robust stimulation

B1: Parathyroid hormone (peptide, UniProt P01270 32-115, looked up)
Parathyroid hormone: SVSEIQLMHNLGKHLNSMERVEWLRKKLQDVHNFVALGAPLAPRDAGSQRPRKKEDNVLVESHEKSLGEADKADVNVLTKAKSQ
modifications: Parathyroid hormone
notes: Parathyroid hormone (PTH)
cAMP production in osteoblasts (WT osteoblasts): stimulate
